According to patent US5373040A, “Amorphous solid modification of 2,2',2"-nitrilo[triethyl-tris-(3,3',5,5'-tetra-tert-butyl-1,1'-biphenyl- 2,2'-diyl)phosphite]” (Ciba-Geigy Corporation, priority 1993, dated 1994):

Assays:
[1] = Process stabilization of polypropylene: yellowness index of plaques (ASTM D1925); settings: in the presence of a representative phenolic antioxidant; versus prior art compound of U.S. Pat. No. 4,318,845
Excerpt: The test additives are incorporated into the polypropylene by dry blending or, when the additive is a liquid, using a minimum amount of methylene chloride solvent. The solvent is then removed by evaporation under reduced pressure.

[2] = Solubility in lubricating oil (Mobil BB oil); type: physicochemical
Description: The following experiments are performed to determine the solubility of amorphous compound A and crystalline compound B in Mobil BB oil. Both compounds have the same uniform particle sizes (40-70 micron).
Compound A=amorphous form of 2,2',2"-nitrilo-[triethyl-tris-(3,3',5,5'-tetra-tert-butyl-1,1'-biphenyl-2,2'-diyl) phosphite], prepared in accordance with instant Example 1.
Compound B=crystalline form of 2,2',2"-nitrilo[triethyl-tris-(3,3',5,5'-tetra-tert-butyl-1,1'-biphenyl-2,2'-diyl) phosphite], prepared in accordance with Example 4 of U.S. Pat. No. 4,318,845.
Into a vial of 980 mg. of Mobil BB oil is added 20 mg. of compound A at ambient temperature. For the first 30 minutes, the vial is shaken every 10 minutes. After the initial 30 minutes, the vial is left standing.
Into a vial of 980 mg. of Mobil BB oil is added 20 mg. of compound B at ambient temperature. For the first 30 minutes, the vial is shaken every 10 minutes. After the initial 30 minutes, the vial is left standing.
Into a vial of 980 mg. of Mobil BB oil is added 20 mg. of compound A at ambient temperature. The vial is then placed into a 60° C. oil bath.
Into a vial of 980 mg. of Mobil BB oil is added 20 mg. of compound B at ambient temperature. The vial is then placed into a 60° C. oil bath.
Into a vial of 990 mg. of Mobil BB oil is added 10 mg. of compound A at ambient temperature. […] is shaken every 10 minutes. After the initial 30 minutes, the vial is left standing.
Into a vial of 990 mg. of Mobil BB oil is added 10 mg. of compound B at ambient temperature. […] is shaken every 10 minutes. After the initial 30 minutes, the vial is left standing.

[3] = Stabilization of unsaturated elastomer: time until onset of crosslinking; settings: 0.5% by weight, 150° C., 60 rpm; versus unstabilized SBR
Description: The instant compound of Example 1 is evaluated in an emulsion of SBR (cold polymerized, 23.5% styrene with a 52 Mooney Viscosity). The unstabilized SBR (60 g) is added to the mixing chamber of a Brabender Plasticorder set at 150° C. and 60 rpm. After 30 seconds, 0.5% by weight of the compound of instant Example 1 is added to the chamber. Stability of the SBR is determined by the time until onset of crosslinking of the rubber as indicated by an increase in the torque curve.

[4] = Stabilization of polyol: discoloration or scorch of foam; settings: 1000 ppm plus BHT 2000 ppm and NAUGARD 445 2000 ppm; versus control stabilizer package
Description: A premix of 10 g of water, 0.25 g of triethylenetetramine, 2 g of L-5740 (silicone surfactant, Union Carbide) and 20 g of ANTIBLAZE® AB-100 (chlorinated aromatic flame retardant, Albright & Wilson) is added to 200 g of 3000 molecular weight polyether polyol containing the stabilizer package listed below*. The mixture is stirred for five minutes with a high speed Lightning Mixer. Then 0.4 g of stannous octoate is added and the mixture is stirred for 5 seconds. Finally, 125 g of toluene diisocyanate ([…]) is added. The mixture is stirred for 7 seconds at high speed mixing and is then poured into a 10"×10"×5" (25.4 cm×25.4 cm×12.7 cm) cardboard box. The foam is allowed to rise completely. After standing 5 minutes, the box is removed and the sample cured in a microwave over for five minutes at 50% power. The foam is then immediately air over cured at 125° C. for three minutes. The foams are then cut in half for visual assessment of discoloration or scorch.
Control is 2,6-di-tert-butyl-4-methylphenol (BHT) 2000 ppm; and NAUGARD® 445 (diphenylamine antioxidant, Uniroyal) 2000 ppm.
Instant package is the above plus 1000 ppm of the compound of Example 1.

[5] = Stabilization of polycarbonate: yellowness index; settings: 0.08 weight percent plus 0.3 weight percent TINUVIN 329; versus UV absorber alone
Description: Additive free bisphenol A polycarbonate (LEXAN® 141-111N, General Electric) is dried and blended with 0.3 weight percent of a benzotriazole UV absorber TINUVIN® 329, Ciba-Geigy) and 0.08 weight percent of instant compound of Example 1. The mixture is extruded and pelletized at 550° F. (288° C.) on a 1" (2.54 cm) single screw extruder. Injection molded plaques (2"×2"×125 mil; 5.08 cm×5.08 cm×3.175 mm) are prepared in a BOY 30M injection molder at 560° F. (293° C.) with a mold temperature of 150° C. The resulting plaques are measured for yellowness index (YI) using ASTM D 1925-70.

[6] = Stabilization of poly(ethylene terephthalate): intrinsic viscosity; settings: 0.5% by weight, five extrusion passes; versus PET containing no stabilizer
Description: Poly(ethylene terephthalate), PET (KODAPAR® 7352, Eastman Chemical) is tumble blended with 0.5% by weight of the compound of instant Example 1. The polymer is then extruded and pelletized at 500° F. (260°C.) in a MPM 1" (2.54 cm) single screw extruder. The pellets are collected, redried and reextruded 5 times. Pellets are collected from each extrusion pass and the polymer intrinsic viscosity measured.

[7] = Stabilization of poly(butylene terephthalate): intrinsic viscosity; settings: 0.3% by weight; second pass extrudate and injection molded plaques; versus PBT containing no stabilizer
Description: Poly(butylene terephthalate), PBT (RYNITE® 9160, DuPont) is tumble blended with 0.3% by weight of the compound of instant Example 1. The polymer is then extruded and pelletized at 260° C. A portion of the collected pellets are reextruded under the same conditions for a second pass. The remainder from the first extrusion is injection molded into 2"×2"×125 mil (5.08 cm×5.08 cm×3.175 mm) plaques at 540° F. (282° C.) with a 100° C. mold temperature in a BOY 30M molder. Intrinsic viscosities of the second pass extrudate and the injection molded plaques are determined.

[8] = compared to the prior art crystalline form

## CC(C)(C)c1cc(C(C)(C)C)c2op(OCCN(CCOp3oc4c(C(C)(C)C)cc(C(C)(C)C)cc4c4cc(C(C)(C)C)cc(C(C)(C)C)c4o3)CCOp3oc4c(C(C)(C)C)cc(C(C)(C)C)cc4c4cc(C(C)(C)C)cc(C(C)(C)C)c4o3)oc3c(C(C)(C)C)cc(C(C)(C)C)cc3c2c1 [Example 1, 2,2',2"-nitrilo[triethyl-tris-(3,3',5,5'-tetra-tert-butyl-1,1'-biphenyl-2,2'-diyl)phosphite]]
[1]
  stabilizing polypropylene against discoloration (change in yellowness index): equal or more effective
[2]; 1% by weight in Mobil BB oil, RT, 1.5 hrs., listed as A
  Observation: Clear solution
[2]; 1% by weight in Mobil BB oil, RT, 1.5 hrs., listed as compound A
  Observation: clear solution
[2]; 1% by weight in Mobil BB oil, RT, listed as A
  Time to clear solution: 1.5 h
[2]; 1% by weight in Mobil BB oil, RT, listed as compound A
  Time to clear solution: 1.5 h
[2]; 2% by weight in Mobil BB oil, 60° C. oil bath, 10 min., listed as A
  Observation: Clear solution
[2]; 2% by weight in Mobil BB oil, 60° C. oil bath, 10 min., listed as compound A
  Observation: clear solution
[2]; 2% by weight in Mobil BB oil, 60° C. oil bath, listed as A
  Time to clear solution: 0.167 h
[2]; 2% by weight in Mobil BB oil, 60° C. oil bath, listed as compound A
  Time to clear solution: 0.167 h
[2]; 2% by weight in Mobil BB oil, RT, 2.5 hrs., listed as A
  Observation: Clear solution
[2]; 2% by weight in Mobil BB oil, RT, 2.5 hrs., listed as compound A
  Observation: clear solution
[2]; 2% by weight in Mobil BB oil, RT, listed as A
  Time to clear solution: 2.5 h
[2]; 2% by weight in Mobil BB oil, RT, listed as compound A
  Time to clear solution: 2.5 h
[2]; [8]
  rate of dissolving in lubricants: faster rate of dissolving
  rate of dissolving in organic materials, such as in polymers and in lubricants: faster rate of dissolving
  solubility in lubricants: better solubility
  solubility in organic materials, such as in polymers and in lubricants: better solubility
[3]
  induction time till crosslinking occurs: longer induction time
[4]
  discoloration of foam (visual inspection): less discolored
  scorch protection: better scorch protection
[5]
  yellowness index (YI): lower YI values
[6]
  retention of original intrinsic viscosity: higher retention of original intrinsic viscosity
[7]
  retention of intrinsic viscosity value: better retention of intrinsic viscosity value
